A value given as a limit tells only on which side of the number the result lay.

One assay addresses T1, HER4 kinase (Homo sapiens, UniProt Q15303).
T1 construct: made in house
Put plainly: Test 12: HER4 kinase screening test. The format is binding. As to conditions: for inhibition at 1 µM: compound concentration 1 μM, read-out: 1 μM Inhibition rate (%); for inhibition at 10 µM: compound concentration 10 μM, read-out: 10 μM Inhibition rate (%). Here is the method: Test 12: HER4 Kinase Screening Test
Most kinase activity tests were carried out by T7 phage expressing kinase expressed in E. coli system. After E. coli grew to the logarithmic phase, E. coli was infected with T7 bacteriophage (moi=0.4) and cultured with shaking at 32° C. until lysis (90-150 minutes). The lysate was filtered with a centrifuge (6,000 g) and filtration membrane (0.2 μm) to remove cell debris. Other individual kinases to be tested were expressed by HEK-293 cells and labeled with DNA for qPCR detection.
Next, the ligand magnetic beads were blocked with excess biotin and washed with blocking buffer (SeaBlock (Pierce), 1% BSA, 0.05% Tween-20, 1 mm DTT) to remove unbound ligand and reduce non-specific binding of phages. […] 100% DMSO was used to prepare the test compound at a concentration of 40×, which was directly diluted into the reaction system. All reactions were carried out on a polypropylene 384-well plate, and the final volume of the reaction system was 0.02 ml.

Another assay concerns the target BaF3 (EGFR-L861Q) (Homo sapiens, UniProt P00533, L861Q, cells depend on it). Put plainly: Test 8: BaF3 (EGFR-L861Q) cell proliferation test. As to conditions: 72 hours, Cell Titer-Glo, read-out: Test 8 - IC50. The format is cell-based. Here is the method:
Test 8: BaF3 (EGFR-L8610) Cell Proliferation Test
BaF3 (EGFR-L861Q) was cultured in RPMI1640 medium containing 10% fetal bovine serum and 2 mM glutamine. The cells were grown at 37° C. in a humidified incubator with 5% CO2.
(§1) The number of viable cells in the culture was measured according to the protocol described in Promega's Cell Titer-Glo Luminescent cell Viability Assay (Promega catalog number #G7570). 90 μl of cells (3,000 cells/well) were cultured in growth medium in a Corning black transparent bottom 96-well plate, and cultured in a 5% CO2 humidified incubator at 37° C. overnight. The compound serially diluted in 100% DMSO was added to the cells using a pipette, and the cells were incubated for another 72 hours. 100 μl of the mixed Cell Titer-Glo reagent was added to the cells in the 96-well culture plate to lyse the cells and mix gently. Subsequently, the […] was detected on the Envision microplate detector to obtain the data of each compound. Finally, the data was input into a suitable software package (such as Prism) for curve fitting analysis.
For orientation: In ATP-based viability assays light output follows the ATP content of the culture.

Another assay has as its target BaF3 (EGFR-A763insFQEA) (Homo sapiens, UniProt P00533, INS763FQEA, cells depend on it). Put plainly: Test 3: BaF3 (EGFR-A763insFQEA) cell proliferation test. The format is cell-based. The settings on record: 72 hours, Cell Titer-Glo, read-out: Test 3 - IC50.
The target in a further assay is BaF3 (HER2-P780insGSP) (Homo sapiens, UniProt P04626, DUP778-780, cells depend on it). Put plainly: Test 10: BaF3 (HER2-P780insGSP) cell proliferation test. Format: cell-based. As to conditions: 72 hours, Cell Titer-Glo, read-out: Test 10 - IC50.
Another assay addresses BaF3 (EGFR-N771insH) (Homo sapiens, UniProt P00533, INS771H, cells depend on it). In words: Test 5: BaF3 (EGFR-N771insH) cell proliferation test. The format is cell-based. The settings on record: 72 hours, Cell Titer-Glo, read-out: Test 5 - IC50. The method, then:
Test 5: BaF3 (EGFR-N771insH) Cell Proliferation Test
BaF3 (EGFR-N771insH) was cultured in RPMI1640 medium containing 10% fetal bovine serum and 2 mM glutamine. The cells were grown at 37° C. in a humidified incubator with 5% CO2.
as §1

The next assay deals with BaF3 (EGFR-S768I) (Homo sapiens, UniProt P00533, S768I, cells depend on it). In words: Test 7: BaF3 (EGFR-S768I) cell proliferation test. Format: cell-based. As to conditions: 72 hours, Cell Titer-Glo, read-out: Test 7 - IC50. Here is the method: Test 7: BaF3 (EGFR-S768I) Cell Proliferation Test
BaF3 (EGFR-S768I) was cultured in RPMI1640 medium containing 10% fetal bovine serum and 2 mM glutamine. The cells were grown at 37° C. in a humidified incubator with 5% CO2.
as §1

The target of a further assay is BaF3 (EGFR-V769insASV) (Homo sapiens, UniProt P00533, DUP767-769, cells depend on it). In words: Test 4: BaF3 (EGFR-V769insASV) cell proliferation test. Format: cell-based. The settings on record: 72 hours, Cell Titer-Glo, read-out: Test 4 - IC50.
The subject of assay [1] is NCI-H1975 (EGFR L858R/T790M double mutant). Put plainly: Test 1: EGFR L858R/T790M (EGFR double mutant) cell proliferation test. Format: cell-based. As to conditions: Homo sapiens; NCI-H1975 cells, 72 hours, Cell Titer-Glo.

Chain of BaF3 (EGFR-V769insASV) (P00533 with tags, fused parts or gaps DUP767-769): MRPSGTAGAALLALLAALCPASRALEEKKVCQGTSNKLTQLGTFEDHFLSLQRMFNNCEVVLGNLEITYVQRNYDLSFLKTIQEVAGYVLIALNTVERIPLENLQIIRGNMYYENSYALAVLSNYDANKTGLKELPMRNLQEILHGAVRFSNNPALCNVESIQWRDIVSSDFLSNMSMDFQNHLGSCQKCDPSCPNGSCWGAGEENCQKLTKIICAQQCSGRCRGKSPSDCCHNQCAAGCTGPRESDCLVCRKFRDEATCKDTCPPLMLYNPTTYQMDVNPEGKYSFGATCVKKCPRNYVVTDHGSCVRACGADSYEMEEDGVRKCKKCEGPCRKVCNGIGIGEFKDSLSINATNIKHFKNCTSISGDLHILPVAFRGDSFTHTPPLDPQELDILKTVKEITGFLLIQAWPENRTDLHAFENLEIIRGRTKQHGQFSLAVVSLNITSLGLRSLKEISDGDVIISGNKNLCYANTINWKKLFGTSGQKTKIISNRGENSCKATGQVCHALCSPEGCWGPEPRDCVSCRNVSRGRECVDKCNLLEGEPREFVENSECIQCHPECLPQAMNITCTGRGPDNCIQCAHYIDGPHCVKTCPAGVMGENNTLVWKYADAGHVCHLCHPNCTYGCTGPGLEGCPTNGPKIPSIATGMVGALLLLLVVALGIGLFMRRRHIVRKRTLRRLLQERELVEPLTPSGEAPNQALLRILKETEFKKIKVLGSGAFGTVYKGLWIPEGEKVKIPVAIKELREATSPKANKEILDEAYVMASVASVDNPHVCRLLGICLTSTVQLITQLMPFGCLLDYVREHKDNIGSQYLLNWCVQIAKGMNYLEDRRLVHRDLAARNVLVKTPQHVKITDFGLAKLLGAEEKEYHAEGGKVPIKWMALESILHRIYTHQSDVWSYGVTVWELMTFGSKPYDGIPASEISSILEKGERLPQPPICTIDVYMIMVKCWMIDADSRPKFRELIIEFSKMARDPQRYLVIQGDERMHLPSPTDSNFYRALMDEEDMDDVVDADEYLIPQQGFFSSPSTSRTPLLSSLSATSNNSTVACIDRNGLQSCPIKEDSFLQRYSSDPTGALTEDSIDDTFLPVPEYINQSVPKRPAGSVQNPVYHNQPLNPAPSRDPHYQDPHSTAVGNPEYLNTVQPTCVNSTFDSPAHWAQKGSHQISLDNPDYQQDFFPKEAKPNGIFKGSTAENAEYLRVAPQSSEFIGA
Chain of BaF3 (EGFR-A763insFQEA) (P00533 with tags, fused parts or gaps INS763FQEA): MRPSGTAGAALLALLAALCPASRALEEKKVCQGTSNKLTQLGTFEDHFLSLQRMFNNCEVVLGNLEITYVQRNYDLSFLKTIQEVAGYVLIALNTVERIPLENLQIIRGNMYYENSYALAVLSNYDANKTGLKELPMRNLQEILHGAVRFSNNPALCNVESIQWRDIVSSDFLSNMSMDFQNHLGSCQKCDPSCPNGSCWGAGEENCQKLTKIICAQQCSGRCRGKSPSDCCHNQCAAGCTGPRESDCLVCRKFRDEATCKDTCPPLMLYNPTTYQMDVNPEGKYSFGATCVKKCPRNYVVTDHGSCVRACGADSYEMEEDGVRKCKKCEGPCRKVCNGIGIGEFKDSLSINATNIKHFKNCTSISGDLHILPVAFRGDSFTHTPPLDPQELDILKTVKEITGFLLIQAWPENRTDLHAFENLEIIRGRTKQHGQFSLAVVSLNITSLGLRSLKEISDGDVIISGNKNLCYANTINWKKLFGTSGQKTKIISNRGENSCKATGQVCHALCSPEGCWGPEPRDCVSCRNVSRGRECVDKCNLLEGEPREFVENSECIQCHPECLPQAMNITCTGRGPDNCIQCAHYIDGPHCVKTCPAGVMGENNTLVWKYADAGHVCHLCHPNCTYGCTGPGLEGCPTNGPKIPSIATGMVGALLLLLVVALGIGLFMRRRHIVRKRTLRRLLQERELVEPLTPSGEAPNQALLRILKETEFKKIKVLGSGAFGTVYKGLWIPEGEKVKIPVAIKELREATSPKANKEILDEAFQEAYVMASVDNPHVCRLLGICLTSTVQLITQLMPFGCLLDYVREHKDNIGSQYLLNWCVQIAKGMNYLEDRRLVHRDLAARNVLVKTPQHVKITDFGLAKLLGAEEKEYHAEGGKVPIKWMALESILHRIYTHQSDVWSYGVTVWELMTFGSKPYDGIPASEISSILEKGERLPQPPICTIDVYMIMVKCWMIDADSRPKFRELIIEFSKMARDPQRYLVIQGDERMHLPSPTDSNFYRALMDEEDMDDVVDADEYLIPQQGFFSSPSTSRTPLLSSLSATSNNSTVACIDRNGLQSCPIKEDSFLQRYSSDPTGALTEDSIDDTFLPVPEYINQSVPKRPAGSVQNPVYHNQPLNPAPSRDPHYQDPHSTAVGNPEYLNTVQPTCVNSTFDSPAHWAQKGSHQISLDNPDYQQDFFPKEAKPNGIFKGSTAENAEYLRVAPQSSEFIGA
Chain of BaF3 (HER2-P780insGSP) (P04626 with tags, fused parts or gaps DUP778-780): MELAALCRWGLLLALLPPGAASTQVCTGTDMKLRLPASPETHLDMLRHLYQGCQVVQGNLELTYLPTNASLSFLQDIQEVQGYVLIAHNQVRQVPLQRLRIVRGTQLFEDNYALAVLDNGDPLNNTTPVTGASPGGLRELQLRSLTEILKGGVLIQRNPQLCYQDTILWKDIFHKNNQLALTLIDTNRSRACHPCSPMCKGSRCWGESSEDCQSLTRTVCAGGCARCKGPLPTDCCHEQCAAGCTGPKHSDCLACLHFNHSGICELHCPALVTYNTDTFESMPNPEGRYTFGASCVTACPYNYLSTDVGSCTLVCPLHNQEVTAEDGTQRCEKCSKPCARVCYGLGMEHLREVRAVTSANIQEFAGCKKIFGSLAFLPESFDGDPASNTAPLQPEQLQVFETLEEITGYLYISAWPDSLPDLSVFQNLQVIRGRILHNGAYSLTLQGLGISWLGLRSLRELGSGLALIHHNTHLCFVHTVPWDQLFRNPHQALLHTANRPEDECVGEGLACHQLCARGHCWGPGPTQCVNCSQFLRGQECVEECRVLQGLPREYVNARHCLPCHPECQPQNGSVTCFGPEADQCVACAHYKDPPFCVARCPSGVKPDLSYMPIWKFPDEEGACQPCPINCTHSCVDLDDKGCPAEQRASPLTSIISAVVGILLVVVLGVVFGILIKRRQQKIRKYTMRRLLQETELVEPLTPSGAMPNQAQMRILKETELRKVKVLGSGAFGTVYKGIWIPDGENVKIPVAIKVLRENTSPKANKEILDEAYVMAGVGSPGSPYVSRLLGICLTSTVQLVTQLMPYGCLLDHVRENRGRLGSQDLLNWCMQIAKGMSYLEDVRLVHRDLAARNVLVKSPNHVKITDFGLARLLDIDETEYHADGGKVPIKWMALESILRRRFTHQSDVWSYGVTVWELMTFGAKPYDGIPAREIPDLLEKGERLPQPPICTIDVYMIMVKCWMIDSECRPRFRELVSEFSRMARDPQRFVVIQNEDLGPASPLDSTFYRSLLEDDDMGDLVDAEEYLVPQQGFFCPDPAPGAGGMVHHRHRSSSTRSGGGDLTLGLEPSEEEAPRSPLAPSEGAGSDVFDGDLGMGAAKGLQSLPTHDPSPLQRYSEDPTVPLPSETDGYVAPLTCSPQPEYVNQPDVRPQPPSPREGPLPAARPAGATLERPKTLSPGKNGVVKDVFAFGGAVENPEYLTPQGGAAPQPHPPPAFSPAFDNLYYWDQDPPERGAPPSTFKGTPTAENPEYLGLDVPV
Chain of BaF3 (EGFR-S768I) (P00533 whole entry S768I): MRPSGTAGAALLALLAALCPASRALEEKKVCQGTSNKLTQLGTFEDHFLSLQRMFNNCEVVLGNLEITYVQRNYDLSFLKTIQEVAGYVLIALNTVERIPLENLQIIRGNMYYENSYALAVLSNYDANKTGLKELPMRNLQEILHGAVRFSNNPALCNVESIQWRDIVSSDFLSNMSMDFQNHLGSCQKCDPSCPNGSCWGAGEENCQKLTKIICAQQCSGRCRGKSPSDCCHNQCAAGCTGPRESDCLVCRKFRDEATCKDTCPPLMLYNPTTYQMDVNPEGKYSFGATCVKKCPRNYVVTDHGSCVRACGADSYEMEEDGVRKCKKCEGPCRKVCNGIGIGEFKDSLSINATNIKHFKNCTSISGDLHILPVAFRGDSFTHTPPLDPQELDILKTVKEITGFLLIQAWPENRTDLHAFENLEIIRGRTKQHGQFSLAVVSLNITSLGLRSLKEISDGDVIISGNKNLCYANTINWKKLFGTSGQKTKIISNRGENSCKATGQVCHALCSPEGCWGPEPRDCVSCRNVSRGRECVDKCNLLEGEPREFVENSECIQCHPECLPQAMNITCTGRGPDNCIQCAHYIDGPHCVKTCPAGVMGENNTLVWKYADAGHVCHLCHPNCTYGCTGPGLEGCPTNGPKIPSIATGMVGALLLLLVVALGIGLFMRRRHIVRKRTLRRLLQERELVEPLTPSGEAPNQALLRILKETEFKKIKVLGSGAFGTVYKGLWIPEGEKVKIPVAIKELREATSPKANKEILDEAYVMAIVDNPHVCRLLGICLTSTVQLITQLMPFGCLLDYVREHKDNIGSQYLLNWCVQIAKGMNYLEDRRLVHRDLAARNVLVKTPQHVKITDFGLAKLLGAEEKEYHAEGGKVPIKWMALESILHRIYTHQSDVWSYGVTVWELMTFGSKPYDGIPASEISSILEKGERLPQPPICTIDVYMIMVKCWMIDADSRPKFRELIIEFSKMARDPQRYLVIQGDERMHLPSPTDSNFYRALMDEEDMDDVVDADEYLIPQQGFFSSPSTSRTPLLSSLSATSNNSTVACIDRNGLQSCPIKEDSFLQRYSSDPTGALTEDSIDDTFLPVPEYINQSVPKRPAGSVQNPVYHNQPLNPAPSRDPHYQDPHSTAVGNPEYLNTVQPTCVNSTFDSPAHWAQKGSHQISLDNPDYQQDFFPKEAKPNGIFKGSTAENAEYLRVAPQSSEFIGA

As for `C=CC(=O)Nc1cc(Nc2ncnc(-c3cn(C)c4ccc(F)cc34)n2)c(OC)cc1N(C)CCN(C)C` [Example 11], the inhibition at 1 µM on HER4 kinase was over 95%. The inhibition at 10 µM on HER4 kinase is over 95%. Besides, the GI50 came out at 22.5 nM on BaF3 (EGFR-L861Q); 9.45 nM at BaF3 (EGFR-A763insFQEA); 8.76 nM on BaF3 (HER2-P780insGSP); 9.19 nM on BaF3 (EGFR-N771insH); 38.1 nM on BaF3 (EGFR-S768I); 47.9 nM on BaF3 (EGFR-V769insASV). This compound also came in with an IC50 in assay [1] of 13.5 nM.
On to `C=CC(=O)Nc1cc(Nc2ncnc(-c3cn(C)c4ccc(F)cc34)n2)c(OC(F)F)cc1N(C)CCN(C)C` [Example 14, N-(4-(difluoromethoxy)-2-((2-(dimethylamino)ethyl)(methyl)amino)-5-((4-(5-fluoro-1-methyl-1H-indol-3-yl)-1,3,5-triazin-2-yl)amino)phenyl)acrylamide], for which the inhibition at 1 µM at HER4 kinase was over 98%. Further, the inhibition at 10 µM on HER4 kinase is over 98%. The GI50 on BaF3 (EGFR-L861Q) was determined as 4.58 nM; on BaF3 (EGFR-A763insFQEA), 7.6 nM; at BaF3 (HER2-P780insGSP) it was 6.92 nM; on BaF3 (EGFR-N771insH), 9.21 nM; at BaF3 (EGFR-S768I), 8.91 nM; on BaF3 (EGFR-V769insASV) it was 25.9 nM. The IC50 in assay [1] came out at 16.8 nM.
For the compound `C=CC(=O)Nc1cc(Nc2ncnc(-c3cn(C)c4ccc(F)cc34)n2)c(OCC(F)(F)F)cc1N(C)CCN(C)C` [Example 15, N-(2-((2-(dimethylamino)ethyl)(methyl)amino)-5-((4-(5-fluoro-1-methyl-1H-indol-3-yl)-1,3,5-triazin-2-yl)amino)-4-(2,2,2-trifluoroethoxy)phenyl)acrylamide], the inhibition at 1 µM on HER4 kinase was over 98%. On HER4 kinase, the inhibition at 10 µM is over 98%. Further, the GI50 was found to be 3.87 nM at BaF3 (EGFR-L861Q); 14 nM on BaF3 (EGFR-A763insFQEA); 6.58 nM on BaF3 (HER2-P780insGSP); 7.66 nM on BaF3 (EGFR-N771insH); 7.41 nM on BaF3 (EGFR-S768I); 45 nM at BaF3 (EGFR-V769insASV). Moreover, in assay [1], half-maximal inhibition (IC50) was put at 12.7 nM.

As usually defined, the inhibition is the change of the read-out against control, counted positive when it falls. One may read the IC50 as the concentration at which inhibition is half-maximal. The low end stands for greater potency, the high end for weaker potency.
